Measured values taken from patent US12054475B2, “Substituted heterocycles as aldehyde dehydrogenase inhibitors” (KayoThera Inc., priority 2021, dated 2024).
Several values for one entry are separate records, joined by “and”; a condition that tells them apart may be missing. Identical values can stand only once.

Legend:
hALDH1a2 [1] = target: T1, hALDH1a2 (Homo sapiens (Human), UniProt O94788); assay: Aldh1a2 enzyme inhibition assay (recombinant enzyme, resorufin fluorescence); format: biochemical
[2] = test system: T3-MCA fibrosarcoma cell line allografts; assay: T3-MCA fibrosarcoma allograft study; format: in vivo, C57BL6 syngeneic mice
Method: In one allograft study, T3-MCA fibrosarcoma cell line allografts were implanted subcutaneously into C57BL6 syngeneic mice. […] Tumor volume were measured on day 8, 14, and 17 post inoculation for each group, and tumor mass were measured at the end of the study.
In another allograft study, T3-MCA fibrosarcoma cell line allografts were implanted subcutaneously into C57BL6 syngeneic mice.

hALDH1a2 [3] = target: T1, hALDH1a2; assay: Cell based assay: STRA6 mRNA by q-rtPCR in MCF7 cells expressing ALDH1a2; settings: 20 hours incubation, read-out: IC50 (ALDH1a2), STRA6 mRNA levels
Method: (§1) MCF7 cells were stably transduced with lentiviral vectors encoding human ALDH1a1, ALDH1a2 or ALDH1a3 or Vector control and selected by puromycin to establish stable cultures that were verified for overexpression by western blotting and Aldefluor activity. Cells were plated into 6 cm plates in regular DMEM media supplement with […]. At the beginning of the assay, cells were washed with PBS for 5 minutes followed by addition of compound solvated into DMEM media with 10% FBS or corresponding DMSO controls, maintaining DMSO at a constant concentration of 0.1% across all samples. Following 20 hours of incubation at 37 C, cells were lysed and RNA was extracted using a Qiagen RNAeasy kit. cDNA was synthesized using the Superscript IV kit and retinoid activation was measured using STRA6 mRNA levels as a proxy as measured by q-rtPCR.

mALDH1a2 = mALDH1a2 (Mus musculus (Mouse), UniProt Q62148); assay: Aldh1a2 enzyme inhibition assay (recombinant enzyme, resorufin fluorescence); format: biochemical
From the text: Recombinant enzyme and inhibitor added immediately before assay. Reaction rate measured by resorufin fluorescence.

hALDH1a3 = hALDH1a3 (Homo sapiens (Human), UniProt P47895); assay: Cell based assay: STRA6 mRNA by q-rtPCR in MCF7 cells expressing ALDH1a3; settings: 20 hours incubation, read-out: IC50 (Aldh1a3), STRA6 mRNA levels
Method: as §1

[4] = test system: K-Ras, p53 −/− undifferentiated pleiomorphic sarcoma cell line allografts; assay: K-Ras, p53 -/- undifferentiated pleiomorphic sarcoma allograft study; format: in vivo, C57BL6 syngeneic mice; settings: single agent, 20 days; Compound 140 40 mg/kg intraperitoneal, MBE1.5 25 mg/kg daily equivalent in diet
Method: In another allograft study, K-Ras, p53 −/− undifferentiated pleiomorphic sarcoma cell line allografts were implanted subcutaneously into C57BL6 syngeneic mice. […] Tumor volume were measured on day 14, 17, and 24 post inoculation for each group, and tumor mass were measured at the end of the study.

[5] = test system: T3-MCA fibrosarcoma cell line allografts; assay: Combination with anti-PD-1 in T3-MCA fibrosarcoma allografts; format: in vivo, C57BL6 syngeneic mice; settings: for tumor growth as a single agent: 40 mg/kg daily equivalent, oral medicated diet, Day 9 to Day 25
Method: T3-MCA fibrosarcoma cell line allografts were implanted subcutaneously into C57BL6 syngeneic mice. […] Medicated diet was initiated at Day 9 after mice were randomized and continued until termination at Day 25. Anti-PD-1 antibody was administered by intraperitoneal injection at Day 11, 14, 18 and 21 by a 200 uL injection of a 1 mg/mL solution in saline. Tumor volume were measured on day 14, 18, 22, and 25 post inoculation for each group.

[6] = test system: primary tumors and metastasis; assay: Mouse xenograft models, ALDH1a3 inhibitor in conjunction with paclitaxel; format: in vivo; settings: with chemotherapy agent paclitaxel
[7] = Pharmacokinetic profiling in mice
[8] = oral, 40 mg/kg once daily for twelve days

T1 sequence (O94788 whole entry): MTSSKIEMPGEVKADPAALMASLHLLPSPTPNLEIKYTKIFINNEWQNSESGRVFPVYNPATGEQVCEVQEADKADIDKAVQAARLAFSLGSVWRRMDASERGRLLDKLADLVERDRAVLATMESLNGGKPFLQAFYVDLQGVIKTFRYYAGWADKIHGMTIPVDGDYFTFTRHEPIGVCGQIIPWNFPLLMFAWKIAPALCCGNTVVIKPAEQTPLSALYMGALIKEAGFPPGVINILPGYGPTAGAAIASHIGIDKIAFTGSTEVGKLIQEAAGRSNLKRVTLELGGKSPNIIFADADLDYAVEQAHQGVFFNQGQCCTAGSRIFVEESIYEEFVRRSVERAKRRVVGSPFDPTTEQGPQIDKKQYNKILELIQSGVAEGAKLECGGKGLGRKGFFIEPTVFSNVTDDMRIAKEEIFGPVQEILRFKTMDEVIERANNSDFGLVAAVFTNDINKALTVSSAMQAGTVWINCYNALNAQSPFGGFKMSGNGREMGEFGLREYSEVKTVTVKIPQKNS
Chain of hALDH1a3 (P47895 whole entry): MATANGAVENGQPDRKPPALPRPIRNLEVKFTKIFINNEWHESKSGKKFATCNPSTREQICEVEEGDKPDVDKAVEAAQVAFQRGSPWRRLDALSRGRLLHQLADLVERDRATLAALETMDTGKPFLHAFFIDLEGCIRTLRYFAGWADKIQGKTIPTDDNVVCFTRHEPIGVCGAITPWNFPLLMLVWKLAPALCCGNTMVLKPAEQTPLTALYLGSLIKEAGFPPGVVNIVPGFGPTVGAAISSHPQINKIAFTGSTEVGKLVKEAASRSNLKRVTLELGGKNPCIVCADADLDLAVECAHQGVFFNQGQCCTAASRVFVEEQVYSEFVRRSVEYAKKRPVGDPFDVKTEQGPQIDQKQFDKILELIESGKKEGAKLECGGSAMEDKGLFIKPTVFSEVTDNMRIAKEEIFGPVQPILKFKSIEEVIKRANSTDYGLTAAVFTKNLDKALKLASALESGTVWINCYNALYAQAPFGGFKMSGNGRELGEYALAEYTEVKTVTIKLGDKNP
Chain of mALDH1a2 (Q62148 whole entry): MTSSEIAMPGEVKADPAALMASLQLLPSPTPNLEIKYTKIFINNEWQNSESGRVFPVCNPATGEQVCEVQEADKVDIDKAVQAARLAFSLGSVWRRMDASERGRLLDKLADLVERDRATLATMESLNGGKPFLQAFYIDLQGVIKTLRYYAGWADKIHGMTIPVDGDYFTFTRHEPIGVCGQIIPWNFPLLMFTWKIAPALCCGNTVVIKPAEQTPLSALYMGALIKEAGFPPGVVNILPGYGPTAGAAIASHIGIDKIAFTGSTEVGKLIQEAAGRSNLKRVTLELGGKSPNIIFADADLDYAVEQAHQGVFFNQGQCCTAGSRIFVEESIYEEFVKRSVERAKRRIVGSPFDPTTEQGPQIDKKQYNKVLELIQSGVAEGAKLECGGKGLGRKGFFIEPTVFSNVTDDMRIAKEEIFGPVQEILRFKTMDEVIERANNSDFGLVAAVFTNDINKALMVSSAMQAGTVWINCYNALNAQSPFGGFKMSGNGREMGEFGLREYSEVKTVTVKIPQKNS

IC50 (hALDH1a2 [1])	IC50 (mALDH1a2)	Compound	tolerability [2, 8]	tumor growth [2, 8]	tumor growth (caliper measurement, tumor mass at endpoint) ([2]; single agent, once daily for 9 days, Compound 140 40 mg/kg intraperitoneal, MBE1.5 25 mg/kg daily equivalent in diet)	IC50 (hALDH1a2 [3])	IC50 (hALDH1a3)	tumor growth (caliper measurement, tumor mass at endpoint) [4]	tumor growth, combined treatment with anti-PD-1 antibody ([5]; 40 mg/kg daily equivalent oral medicated diet plus anti-PD-1 200 microgram i.p. Day 11, 14, 18, 21)	tumor growth as a single agent [5]	tumor growth as a single agent ([5]; listed as compound 140)	efficacy in conjunction with paclitaxel [6]	cage side observations, adverse reactions ([7]; 0 hours to 24 hours post-dosing, mice)	plasma half-life, IV bolus dosing ([7]; male CD-1/C57BL/6 mice, 1 mg/kg intravenous)	plasma half-life, PO oral gavage dosing ([7]; male CD-1/C57BL/6 mice, 10 mg/kg oral gavage)	oral bioavailability ([7]; male CD-1/C57BL/6 mice, 10 mg/kg oral gavage, 1 mg/kg intravenous)	time plasma concentrations exceed 5-fold the IC50 ([7]; oral gavage (PO) and intravenous (IV) administration, n=3 mice per group)
99 nM	96 nM	CCc1cnccc1C(=O)Nc1cc(C)c2c(c1)CCC(=O)N2 [Compound 140, 3-ethyl-N-(8-methyl-2-oxo-3,4-dihydro-1H-quinolin-6-yl)pyridine-4-carboxamide]	excellent tolerability	successful inhibition of tumor growth	successful inhibition of tumor growth as a single agent	27.6 nM and < 50 nM	6.97 nM and < 50 nM	successful inhibition of tumor growth as a single agent	synergy with anti-PD-1 antibody in causing tumor regression	successful inhibition of tumor growth as a single agent	inhibits tumor growth as a single agent						
		CCc1cnccc1C(=O)Nc1cc2c(cc1F)NC(=O)CC2 [MBE1]				1670 nM	3.67 nM					effective in treating established metastatic diseases	no adverse reactions	1.79 h	1.37 h	88%	> 10 h
